In brackets after ≈: the same amount, converted by molar mass.
Tests used:
[1] = Permeability of compound by PAMPA assay; format: ADME; design: reference not given here
[2] = Microsomal stability in mouse liver microsomes assessed as clearance; format: ADME, Microsome
[3] = Aqueous solubility of compound at pH 6.8; format: physicochemical
Activin receptor type-1 [4] = target: T1, Activin receptor type-1 (Homo sapiens, UniProt Q04771); experiment: Inhibition of wild type ALK2 (unknown origin) assessed as enzymatic activity by microfluidic mobility shift assay
T1 sequence (Q04771 whole entry): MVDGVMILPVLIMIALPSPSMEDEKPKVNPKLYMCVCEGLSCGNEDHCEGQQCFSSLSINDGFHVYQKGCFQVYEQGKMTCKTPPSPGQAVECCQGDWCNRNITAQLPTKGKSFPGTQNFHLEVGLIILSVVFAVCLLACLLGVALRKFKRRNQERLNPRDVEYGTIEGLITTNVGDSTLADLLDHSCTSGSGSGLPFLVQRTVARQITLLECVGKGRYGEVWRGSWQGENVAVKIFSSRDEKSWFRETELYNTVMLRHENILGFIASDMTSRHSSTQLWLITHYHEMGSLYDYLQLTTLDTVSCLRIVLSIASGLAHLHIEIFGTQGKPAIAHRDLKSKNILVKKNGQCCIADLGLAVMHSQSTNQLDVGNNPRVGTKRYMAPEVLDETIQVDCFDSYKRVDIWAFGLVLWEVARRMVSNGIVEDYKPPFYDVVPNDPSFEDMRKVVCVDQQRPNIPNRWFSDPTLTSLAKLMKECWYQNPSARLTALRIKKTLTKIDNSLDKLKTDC

[5] = target: Interferon-induced, double-stranded RNA-activated protein kinase (Homo sapiens) (UniProt P19525); experiment: Binding affinity to wild type EIF2AK2 (unknown origin) assessed as percent of control at 1 uM by Kinomescan method relative to control
[6] = target: T2, Bone morphogenetic protein receptor type-1B (Homo sapiens, UniProt O00238); experiment: Inhibition of wild type ALK6 (unknown origin) assessed as enzymatic activity using chemiluminescent substrate by ADP-Glo assay
[7] = target: T3, Activin receptor type-1-like (Homo sapiens, UniProt P37023); experiment: Binding affinity to wild type ALK1 (unknown origin) assessed as percent of control at 1 uM by Kinomescan method relative to control
[8] = target: Dual specificity protein kinase CLK2 (Homo sapiens) (UniProt P49760); experiment: Binding affinity to wild type CLK2 (unknown origin) assessed as percent of control at 1 uM by Kinomescan method relative to control
[9] = target: T4, Activin receptor type-1 (Homo sapiens) (UniProt Q04771); experiment: Binding affinity to wild type ALK2 (unknown origin) assessed as percent of control at 1 uM by Kinomescan method relative to control
T4 sequence (whole entry): T1 sequence (Q04771 whole entry)

Homo sapiens [10] = species: Homo sapiens; experiment: Selectivity ratio of IC50 for inhibition of wild type ALK2 (unknown origin) to IC50 for inhibition of ALK2 R206H mutant (unknown origin)
[11] = target: Dual specificity protein kinase CLK1 (Homo sapiens) (UniProt P49759); experiment: Binding affinity to wild type CLK1 (unknown origin) assessed as percent of control at 1 uM by Kinomescan method relative to control
Homo sapiens [12] = species: Homo sapiens; experiment: Selectivity ratio of IC50 for inhibition of wild type ALK6 (unknown origin) to IC50 for inhibition of ALK2 R206H mutant (unknown origin)
[13] = target: T3, Activin receptor type-1-like; experiment: Inhibition of wild type ALK1 (unknown origin) assessed as enzymatic activity by microfluidic mobility shift assay
[14] = target: T5, Bone morphogenetic protein receptor type-1A (Homo sapiens, UniProt P36894); experiment: Binding affinity to wild type ALK3 (unknown origin) assessed as percent of control at 1 uM by Kinomescan method relative to control
[15] = target: Serine/threonine-protein kinase 38 (Homo sapiens) (UniProt Q15208); experiment: Binding affinity to wild type STK38 (unknown origin) assessed as percent of control at 1 uM by Kinomescan method relative to control
Activin receptor type-1 [16] = target: T6, Activin receptor type-1 (Homo sapiens, UniProt Q04771, R206H); experiment: Inhibition of ALK2 R206H mutant (unknown origin) assessed as enzymatic activity by microfluidic mobility shift assay
Homo sapiens [17] = species: Homo sapiens; experiment: Selectivity ratio of IC50 for inhibition of wild type ALK5 (unknown origin) to IC50 for Inhibition of ALK2 R206H mutant (unknown origin)
[18] = target: T5, Bone morphogenetic protein receptor type-1A; experiment: Inhibition of wild type ALK3 (unknown origin) assessed as enzymatic activity using chemiluminescent substrate by ADP-Glo assay
[19] = target: T2, Bone morphogenetic protein receptor type-1B; experiment: Binding affinity to wild type ALK6 (unknown origin) assessed as percent of control at 1 uM by Kinomescan method relative to control
Activin receptor type-1 [20] = target: T6, Activin receptor type-1; experiment: Inhibition of ALK2 R206H mutant (unknown origin) transfected in BMP6-stimulated human HEK293 cells by luciferase reporter gene assay; format: cell-based
Homo sapiens [21] = species: Homo sapiens; experiment: Selectivity ratio of IC50 for inhibition of wild type ALK1 (unknown origin) to IC50 for inhibition of ALK2 R206H mutant (unknown origin)
TGF-beta receptor type-1 = target: T7, TGF-beta receptor type-1 (Homo sapiens, UniProt P36897); experiment: Inhibition of wild type ALK5 (unknown origin) assessed as enzymatic activity by microfluidic mobility shift assay
T7 sequence (P36897 whole entry): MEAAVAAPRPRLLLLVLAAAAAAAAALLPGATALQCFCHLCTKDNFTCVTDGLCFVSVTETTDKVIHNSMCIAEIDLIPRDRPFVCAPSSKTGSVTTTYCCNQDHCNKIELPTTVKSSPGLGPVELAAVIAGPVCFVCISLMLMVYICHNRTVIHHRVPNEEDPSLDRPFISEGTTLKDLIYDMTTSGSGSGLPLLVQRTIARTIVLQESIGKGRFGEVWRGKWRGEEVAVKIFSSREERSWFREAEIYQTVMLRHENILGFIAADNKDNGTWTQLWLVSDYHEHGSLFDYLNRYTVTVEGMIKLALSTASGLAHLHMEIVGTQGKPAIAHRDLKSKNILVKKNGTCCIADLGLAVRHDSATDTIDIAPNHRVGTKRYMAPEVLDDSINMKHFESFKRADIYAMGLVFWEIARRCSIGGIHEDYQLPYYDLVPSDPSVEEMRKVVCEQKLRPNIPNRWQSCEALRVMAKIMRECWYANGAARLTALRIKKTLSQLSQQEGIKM

[22] = target: Non-receptor tyrosine-protein kinase TYK2 (Homo sapiens) (UniProt P29597); experiment: Binding affinity to wild type TYK2 JH2 domain (unknown origin) assessed as percent of control at 1 uM by Kinomescan method relative to control
Homo sapiens [23] = species: Homo sapiens; experiment: Selectivity ratio of IC50 for inhibition of wild type ALK3 (unknown origin) to IC50 for inhibition of ALK2 R206H mutant (unknown origin)

T3 sequence (P37023 whole entry): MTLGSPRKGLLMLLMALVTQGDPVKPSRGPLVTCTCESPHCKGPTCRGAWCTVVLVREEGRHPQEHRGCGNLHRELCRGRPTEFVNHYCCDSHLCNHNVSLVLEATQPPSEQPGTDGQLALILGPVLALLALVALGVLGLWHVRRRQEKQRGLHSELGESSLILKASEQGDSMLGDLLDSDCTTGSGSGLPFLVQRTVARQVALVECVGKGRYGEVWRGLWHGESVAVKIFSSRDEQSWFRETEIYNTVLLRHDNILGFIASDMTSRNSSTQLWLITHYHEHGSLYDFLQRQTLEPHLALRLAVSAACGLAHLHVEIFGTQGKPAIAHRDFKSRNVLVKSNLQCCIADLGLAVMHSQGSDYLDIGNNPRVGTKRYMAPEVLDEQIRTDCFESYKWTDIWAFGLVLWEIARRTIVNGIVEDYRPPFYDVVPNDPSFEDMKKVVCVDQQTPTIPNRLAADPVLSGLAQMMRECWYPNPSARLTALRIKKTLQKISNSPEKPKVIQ
T6 sequence (Q04771 21-509 R206H limits assumed): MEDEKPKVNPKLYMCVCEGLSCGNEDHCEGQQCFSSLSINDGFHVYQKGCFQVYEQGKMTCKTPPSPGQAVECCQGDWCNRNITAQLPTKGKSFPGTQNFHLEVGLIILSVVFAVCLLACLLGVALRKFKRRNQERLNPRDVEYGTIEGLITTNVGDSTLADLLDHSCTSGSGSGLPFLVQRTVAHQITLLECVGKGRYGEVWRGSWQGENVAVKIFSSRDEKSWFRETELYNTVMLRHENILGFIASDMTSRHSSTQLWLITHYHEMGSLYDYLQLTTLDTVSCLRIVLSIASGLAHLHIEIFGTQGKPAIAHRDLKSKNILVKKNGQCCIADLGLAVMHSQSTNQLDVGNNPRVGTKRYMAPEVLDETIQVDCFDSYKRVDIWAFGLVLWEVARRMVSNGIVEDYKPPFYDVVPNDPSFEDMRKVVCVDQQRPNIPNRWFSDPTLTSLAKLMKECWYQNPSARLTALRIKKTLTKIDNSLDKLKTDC
T2 sequence (O00238 whole entry): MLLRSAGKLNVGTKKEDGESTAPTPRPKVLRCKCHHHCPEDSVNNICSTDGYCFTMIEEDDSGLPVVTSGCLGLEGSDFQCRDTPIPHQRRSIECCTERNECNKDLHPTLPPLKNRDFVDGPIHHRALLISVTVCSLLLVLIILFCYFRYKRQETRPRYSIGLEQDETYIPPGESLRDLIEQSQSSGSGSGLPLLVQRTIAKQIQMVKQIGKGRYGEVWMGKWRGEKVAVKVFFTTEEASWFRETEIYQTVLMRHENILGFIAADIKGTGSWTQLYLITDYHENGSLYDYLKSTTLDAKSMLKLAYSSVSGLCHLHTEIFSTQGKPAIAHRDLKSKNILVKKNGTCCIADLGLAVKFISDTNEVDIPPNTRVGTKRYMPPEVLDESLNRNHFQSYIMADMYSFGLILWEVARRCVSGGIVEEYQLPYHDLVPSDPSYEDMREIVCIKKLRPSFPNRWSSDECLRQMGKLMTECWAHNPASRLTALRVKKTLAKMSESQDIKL
T5 sequence (P36894 whole entry): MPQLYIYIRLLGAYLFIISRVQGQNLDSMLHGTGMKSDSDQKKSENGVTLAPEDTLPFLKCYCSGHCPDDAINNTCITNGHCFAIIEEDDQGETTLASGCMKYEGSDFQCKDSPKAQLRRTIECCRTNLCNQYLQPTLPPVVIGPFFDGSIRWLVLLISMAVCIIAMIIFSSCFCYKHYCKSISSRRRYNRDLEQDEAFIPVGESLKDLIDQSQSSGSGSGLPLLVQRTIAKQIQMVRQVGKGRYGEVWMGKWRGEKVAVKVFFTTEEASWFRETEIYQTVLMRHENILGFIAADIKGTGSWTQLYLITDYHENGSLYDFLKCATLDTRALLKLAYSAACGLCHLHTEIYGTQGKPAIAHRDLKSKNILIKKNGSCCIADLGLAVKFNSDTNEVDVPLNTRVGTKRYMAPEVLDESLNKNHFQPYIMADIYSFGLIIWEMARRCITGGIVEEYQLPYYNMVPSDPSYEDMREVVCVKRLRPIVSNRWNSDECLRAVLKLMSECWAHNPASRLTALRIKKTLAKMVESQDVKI
Non-receptor tyrosine-protein kinase TYK2 (Homo sapiens), sequence (P29597 whole entry, the tested form may be a part): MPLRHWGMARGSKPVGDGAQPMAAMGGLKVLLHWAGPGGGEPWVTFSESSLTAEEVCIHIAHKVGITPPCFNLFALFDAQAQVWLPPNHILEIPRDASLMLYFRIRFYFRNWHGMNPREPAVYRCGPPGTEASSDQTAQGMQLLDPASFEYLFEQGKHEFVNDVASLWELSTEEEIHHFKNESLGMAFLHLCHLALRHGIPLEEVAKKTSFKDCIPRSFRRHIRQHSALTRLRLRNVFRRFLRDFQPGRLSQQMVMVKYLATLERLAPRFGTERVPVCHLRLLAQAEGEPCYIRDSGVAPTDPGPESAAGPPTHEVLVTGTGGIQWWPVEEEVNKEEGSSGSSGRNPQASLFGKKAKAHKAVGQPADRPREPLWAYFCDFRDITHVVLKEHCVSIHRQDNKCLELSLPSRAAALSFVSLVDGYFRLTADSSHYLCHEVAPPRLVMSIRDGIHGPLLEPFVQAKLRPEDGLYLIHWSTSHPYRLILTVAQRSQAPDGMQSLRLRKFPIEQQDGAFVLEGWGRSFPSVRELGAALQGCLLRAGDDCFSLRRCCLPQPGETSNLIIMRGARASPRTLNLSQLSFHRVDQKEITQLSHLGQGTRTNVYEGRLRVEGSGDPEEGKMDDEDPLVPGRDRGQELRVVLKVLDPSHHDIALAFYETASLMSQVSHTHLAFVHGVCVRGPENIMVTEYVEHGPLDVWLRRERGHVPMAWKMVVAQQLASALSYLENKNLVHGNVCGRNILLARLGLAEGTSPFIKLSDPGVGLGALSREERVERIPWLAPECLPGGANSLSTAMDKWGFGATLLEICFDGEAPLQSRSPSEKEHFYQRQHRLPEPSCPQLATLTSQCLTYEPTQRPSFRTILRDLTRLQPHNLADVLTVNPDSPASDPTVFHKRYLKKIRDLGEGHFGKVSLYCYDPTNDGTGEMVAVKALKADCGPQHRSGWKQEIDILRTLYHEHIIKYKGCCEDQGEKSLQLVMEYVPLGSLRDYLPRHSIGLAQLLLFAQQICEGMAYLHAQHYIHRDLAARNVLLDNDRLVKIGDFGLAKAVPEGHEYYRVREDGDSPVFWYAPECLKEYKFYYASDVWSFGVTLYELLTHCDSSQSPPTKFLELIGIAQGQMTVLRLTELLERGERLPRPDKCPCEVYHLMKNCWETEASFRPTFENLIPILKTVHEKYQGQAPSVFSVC
Dual specificity protein kinase CLK1 (Homo sapiens), sequence (P49759 whole entry, looked up): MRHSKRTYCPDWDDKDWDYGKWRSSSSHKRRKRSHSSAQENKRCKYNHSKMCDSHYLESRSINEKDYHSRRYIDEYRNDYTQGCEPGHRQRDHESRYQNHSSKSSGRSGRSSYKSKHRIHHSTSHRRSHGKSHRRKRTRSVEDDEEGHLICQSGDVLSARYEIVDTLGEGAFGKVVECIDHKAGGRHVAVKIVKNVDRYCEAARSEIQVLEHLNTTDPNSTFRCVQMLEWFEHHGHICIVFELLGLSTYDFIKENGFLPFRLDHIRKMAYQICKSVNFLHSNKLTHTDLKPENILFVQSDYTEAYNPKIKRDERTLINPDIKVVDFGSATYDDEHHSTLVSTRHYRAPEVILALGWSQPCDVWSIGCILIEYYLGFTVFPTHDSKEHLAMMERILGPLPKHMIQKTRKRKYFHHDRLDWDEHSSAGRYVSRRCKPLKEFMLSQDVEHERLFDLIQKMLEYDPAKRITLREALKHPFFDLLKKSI
Interferon-induced, double-stranded RNA-activated protein kinase (Homo sapiens), sequence (P19525 whole entry): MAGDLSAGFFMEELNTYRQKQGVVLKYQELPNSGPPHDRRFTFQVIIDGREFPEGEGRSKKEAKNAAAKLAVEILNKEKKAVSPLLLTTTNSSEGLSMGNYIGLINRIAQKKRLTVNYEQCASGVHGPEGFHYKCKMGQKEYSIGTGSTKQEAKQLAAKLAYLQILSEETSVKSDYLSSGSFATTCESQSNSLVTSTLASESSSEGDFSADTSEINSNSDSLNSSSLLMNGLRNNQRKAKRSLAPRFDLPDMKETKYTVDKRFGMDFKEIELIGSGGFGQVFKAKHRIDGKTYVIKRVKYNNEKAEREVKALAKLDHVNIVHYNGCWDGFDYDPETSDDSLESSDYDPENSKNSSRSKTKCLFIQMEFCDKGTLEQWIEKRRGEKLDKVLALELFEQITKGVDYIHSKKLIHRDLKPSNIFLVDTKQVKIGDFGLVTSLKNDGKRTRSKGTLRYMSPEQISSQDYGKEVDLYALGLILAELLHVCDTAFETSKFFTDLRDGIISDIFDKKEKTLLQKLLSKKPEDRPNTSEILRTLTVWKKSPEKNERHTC
Serine/threonine-protein kinase 38 (Homo sapiens), sequence (Q15208 2-465 limits assumed): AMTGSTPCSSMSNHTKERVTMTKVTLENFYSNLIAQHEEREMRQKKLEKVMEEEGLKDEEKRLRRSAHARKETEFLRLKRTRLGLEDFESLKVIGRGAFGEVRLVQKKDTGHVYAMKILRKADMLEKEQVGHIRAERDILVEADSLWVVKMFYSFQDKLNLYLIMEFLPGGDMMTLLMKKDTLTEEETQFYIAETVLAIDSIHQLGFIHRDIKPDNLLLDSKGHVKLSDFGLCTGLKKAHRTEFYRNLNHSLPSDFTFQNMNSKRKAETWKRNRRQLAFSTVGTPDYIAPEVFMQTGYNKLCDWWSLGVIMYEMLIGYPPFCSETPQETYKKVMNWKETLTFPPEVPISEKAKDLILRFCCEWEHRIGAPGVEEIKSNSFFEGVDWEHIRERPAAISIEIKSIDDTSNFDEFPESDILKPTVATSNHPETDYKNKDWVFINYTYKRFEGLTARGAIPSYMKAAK

CCN(CC)C1CCN(Cc2ccc(-c3cnc(N)c(C(=O)N[C@H]4CC[C@H](O)CC4)n3)cc2)CC1
permeability [1]: 61% | CLH [2]: < 10 µL/min/mg | solubility [3]: > 1000 µM

C[C@@](O)(CNC(=O)c1nc(-c2ccc(CN3CCNCC3)cc2)cnc1N)C(F)(F)F
permeability [1]: 42% | CLH [2]: < 10 µL/min/mg | solubility [3]: > 1000 µM

CN(C)Cc1ccc(-c2cnc(N)c(C(=O)NC3CCC(O)CC3)n2)cc1 (centres undefined)
permeability [1]: 94% | CLH [2]: 64 µL/min/mg | solubility [3]: 850 µM (≈ 314 µg/mL)

CCNC(=O)c1nc(-c2ccc(CN(C)C)cc2)cnc1N
permeability [1]: 99% | CLH [2]: 373 µL/min/mg | solubility [3]: > 1000 µM

C[C@]1(O)CC[C@H](NC(=O)c2nc(-c3ccc(CN4CCC(N5CCOCC5)CC4)cc3Cl)cnc2N)CC1
CLH [2]: 197 µL/min/mg

Nc1ncc(-c2ccc(CN3CCC(N4CCCC4)CC3)cc2)nc1C(=O)N[C@H]1CC[C@H](O)CC1 (stereo in doubt; 19)
permeability [1]: 62% | CLH [2]: 23 µL/min/mg

CC(C)NC(=O)c1nc(-c2ccc(CN(C)C)cc2)cnc1N
permeability [1]: 100% | CLH [2]: 634 µL/min/mg | solubility [3]: > 1000 µM

CCN(CC)Cc1ccc(-c2cnc(N)c(C(=O)NC[C@@](C)(O)C(F)(F)F)n2)cc1
permeability [1]: 99% | CLH [2]: 58 µL/min/mg | solubility [3]: > 1000 µM

CN(C)Cc1ccc(-c2cnc(N)c(C(=O)NC[C@@](C)(O)C(F)(F)F)n2)cc1
permeability [1]: 99% | CLH [2]: 126 µL/min/mg | solubility [3]: 510 µM (≈ 203 µg/mL)

CC(C)N1CCN(Cc2ccc(-c3cnc(N)c(C(=O)NC[C@@](C)(O)C(F)(F)F)n3)cc2)CC1
permeability [1]: 99% | CLH [2]: 28 µL/min/mg | solubility [3]: > 1000 µM

C[C@@](O)(CNC(=O)c1nc(-c2ccc(CN3CCCC3)cc2)cnc1N)C(F)(F)F
permeability [1]: 99% | CLH [2]: 41 µL/min/mg | solubility [3]: > 1000 µM

CC(C)N1CCN(Cc2ccc(-c3cnc(N)c(C(=O)N[C@H]4CC[C@H](O)CC4)n3)cc2)CC1
permeability [1]: 85% | CLH [2]: 12 µL/min/mg | solubility [3]: 830 µM (≈ 376 µg/mL)

C[C@@](O)(CNC(=O)c1nc(-c2ccc(CN3CCS(=O)(=O)CC3)cc2)cnc1N)C(F)(F)F
permeability [1]: 45% | CLH [2]: 20 µL/min/mg | solubility [3]: 4 µM (≈ 1.95 µg/mL)

CN(C)Cc1ccc(-c2cnc(N)c(C(=O)NC3CCCC3O)n2)cc1 (centres undefined)
permeability [1]: 99% | CLH [2]: 179 µL/min/mg | solubility [3]: 940 µM (≈ 334 µg/mL)

Nc1ncc(-c2ccc(CN3CCC(N4CCCC4)CC3)cc2)nc1C(=O)N[C@H]1CC[C@H](O)CC1 (stereo in doubt; 18)
permeability [1]: 56% | CLH [2]: < 10 µL/min/mg | solubility [3]: > 1000 µM

Nc1ncc(-c2ccc(CN3CCC(N4CCOCC4)CC3)cc2Cl)nc1C(=O)NC12CCC(O)(CC1)CC2
IC50 (Activin receptor type-1 [4]): 12 nM | Activity [5]: 14% | IC50 [6]: 2100 nM | Activity [7]: 8.5% | Activity [8]: 27% | permeability [1]: 99% | CLH [2]: 55 µL/min/mg | Activity [9]: 2% | Ratio IC50 (Homo sapiens [10]): 1.5 | Activity [11]: 29% | solubility [3]: 420 µM (≈ 233 µg/mL) | Ratio IC50 (Homo sapiens [12]): 263 | IC50 [13]: 120 nM | Activity [14]: 11% | Activity [15]: 14% | IC50 (Activin receptor type-1 [16]): 8 nM | Ratio IC50 (Homo sapiens [17]): 275 | IC50 [18]: 280 nM | Activity [19]: 0.7% | IC50 (Activin receptor type-1 [20]): 44 nM | Ratio IC50 (Homo sapiens [21]): 15 | IC50 (TGF-beta receptor type-1): 2200 nM | Activity [22]: 24% | Ratio IC50 (Homo sapiens [23]): 35

C[C@@](O)(CNC(=O)c1nc(-c2ccc(CN3CCOCC3)cc2)cnc1N)C(F)(F)F
permeability [1]: 99% | CLH [2]: 86 µL/min/mg | solubility [3]: 190 µM (≈ 83.5 µg/mL)

CN(C)Cc1ccc(-c2cnc(N)c(C(=O)NC3CCCCC3)n2)cc1
permeability [1]: 100% | CLH [2]: 839 µL/min/mg | solubility [3]: 190 µM (≈ 67.2 µg/mL)

CC(O)CNC(=O)c1nc(-c2ccc(CN(C)C)cc2)cnc1N (racemic)
permeability [1]: 77% | CLH [2]: 103 µL/min/mg | solubility [3]: > 1000 µM

CN(C)Cc1ccc(-c2cnc(N)c(C(=O)NCC(O)C(F)(F)F)n2)cc1 (centres undefined)
permeability [1]: 93% | CLH [2]: 159 µL/min/mg | solubility [3]: 880 µM (≈ 337 µg/mL)

Nc1ncc(-c2ccc(CN3CCC(N4CCOCC4)CC3)cc2)nc1C(=O)N[C@H]1CC[C@H](O)CC1
permeability [1]: 65% | CLH [2]: 19 µL/min/mg | solubility [3]: > 1000 µM

Nc1ncc(-c2ccc(CN3CCC(N4CCOCC4)CC3)cc2Cl)nc1C(=O)N[C@H]1CC[C@H](O)CC1
permeability [1]: 96% | CLH [2]: 74 µL/min/mg | solubility [3]: > 1000 µM

Reference: ChEMBL document CHEMBL5120784, “Discovery of a novel 2-aminopyrazine-3-carboxamide as a potent and selective inhibitor of Activin Receptor-Like Kinase-2 (ALK2) for the treatment of fibrodysplasia ossificans progressiva” (Bioorg Med Chem Lett, 2022)
